{"source": "patent US20260309717A1", "about": "“PROXIMITY INDUCING SYSTEM AND USES THEREOF” (SORBONNE UNIVERSITE, priority 2022, published 2026)", "assay_type_in_all_cases": "cell-based", "key": {"[1]": {"biological_target": "T1, FKBP-caged^FIREtag / FRB-^FIREmate (Halorhodospira halophila, UniProt P16113, A30V/C69G/D97P/F96I, form not given/G21E/G25R/K17N/M100R/M109L/Q41L/Q99S/S72T/T101G/V83A/Y94W/Y98T)", "T1 construct": "FKBP-caged FIREtag (PYP 2-114 C69G cage) and FRB-FIREmate co-expressed in HEK293T cells", "T1 sequence (P16113 1-114 A30V/C69G/D97P/F96I/G21E/G25R/K17N/M100R/M109L/Q41L/Q99S/S72T/T101G/V83A/Y94W/Y98T)": "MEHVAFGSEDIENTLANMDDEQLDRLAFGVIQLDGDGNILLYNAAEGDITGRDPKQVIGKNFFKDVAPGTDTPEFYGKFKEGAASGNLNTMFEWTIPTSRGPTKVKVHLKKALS", "test": "Flow cytometry of ternary assembly formation with caged^FIREtag, HEK293T cells", "from_the_text": "FIG. 10 is a graph illustrating the fluorogen-dependent interaction between caged ^FIREtag and ^FIREmate. […] Data represent the mean values±SD of 3 independent experiments.\nAlthough, as indicated above, no self-complementation between ^FIREtag and ^FIREmate could be observed in the absence of fluorogen (see FIG. 3), a caged FIREt was designed to prevent any interaction with ^FIREmate in the absence of fluorogen, even at high expression levels. To cage ^FIREtag, the N-terminal domain 2-114 of Halorhodospira halophila photoactive yellow protein (PYP) C69G (corresponding to SEQ ID NO: 21) was fused to ^FIREtag. The intramolecular interaction between ^FIREtag and the N-terminal domain 2-114 of H. halophila PYP C69G induces the folding of the caged^FIREtag protein, thus preventing any intermolecular interaction of the caged^FIREtag with ^FIREmate. The fusion proteins FKBP-caged^FIREtag and FRB-^FIREmate were co-expressed in HEK293T cells. The cells were then treated with the fluorogens HBR-2,5DM at various concentrations (1, 5, 10, 25 or 50 μM as indicated), in the presence or absence of rapamycin."}, "[2]": {"biological_target": "T2, mCherry-^FIREtag / ^FIREmate-ECFP-Cb5 (Halorhodospira halophila, UniProt P16113, A30V/C69G/D97P/F96I, form not given/G21E/G25R/K17N/M100R/M109L/Q41L/Q99S/S72T/T101G/V83A/Y94W/Y98T)", "T2 construct": "FIREmate-ECFP-Cb5(100-134) and mCherry-FIREtag in HeLa cells", "T2 sequence (P16113 1-114 A30V/C69G/D97P/F96I/G21E/G25R/K17N/M100R/M109L/Q41L/Q99S/S72T/T101G/V83A/Y94W/Y98T)": "T1 sequence (P16113 1-114 A30V/C69G/D97P/F96I/G21E/G25R/K17N/M100R/M109L/Q41L/Q99S/S72T/T101G/V83A/Y94W/Y98T)", "test": "Recruitment of cytoplasmic protein to the endoplasmic reticulum, HeLa cells", "conditions": "10 μM", "protocol": "FIGS. 7A-E illustrate the recruitment of cytoplasmic proteins to the endoplasmic reticulum with the proximity inducing system described herein. FIG. 7A is a representation of the experimental design wherein HeLa cells co-expressing mCherry-^FIREtag and ^FIREmate-ECFP-Cb5 were treated with 10 μM of match (either HBR-2,5DM or HMBR), and imaged by time-lapse confocal microscopy. FIGS. 7B-C are graphs showing the temporal evolution of the FIRE signal detected upon addition at 0 min of HBR-2,5DM (match1-7C) or HMBR (match2-7D). Data represents the mean values±SD of 17 cells from n=3 independent experiments (7B, D), or of 18 cells from n=3 independent experiments (7C, E). FIGS. 7D-E are sets of representative confocal micrographs of cells before (0 min) and after (5 min) addition of HBR-2,5DM (match1-7D) or HMBR (match2-7E) (mCherry: ex/em 561/606-675 nm; FIRE: ex/em 488/508-570 nm; ECFP: ex/em 445/455-499 nm). […] Scale bars are 20 μm.\n(§1) The confocal micrographs were acquired on a Zeiss LSM 980 Laser Scanning Microscope equipped with a plan apochromat 63x/1.4 NA oil immersion objective. ZEN software was used to collect the data. The images were analyzed using Icy (2.4.0.0) and Fiji (Image J). In short, to track fluorescence signal in a specific organelle, a ROI (region of interest) was determined by masking the signal in the ECFP (Enhanced Cyan Fluorescent Protein) channel with the plug-in HK-means with the following parameters: intensity class equals 100, minimum object size (pixels or px) equals 500, maximum object size (px) equals 1500-3000. The signal intensity of the ROI was tracked over time for each channel by using plug-in Active Contours. The background signal was subtracted. Data were processed using GraphPad Prism v9.3.0.\nTo further evaluate the scope of the proximity inducing system described herein and show its versatility, ^FIREmate was anchored at the membrane of various organelles or cellular structures so that ^FIREmate faced the cytosol. ^FIREmate was thus fused: • to the N-terminus of the transmembrane domain (amino acid residues at positions 3131-3259) of Giantin for location at the cis-medial rims of the Golgi apparatus (FIG. 6A), • to the N-terminus of the transmembrane domain (amino acid residues at positions 100-134) of the cytochrome b5 (Cb5) for location at the endoplasmic reticulum membrane (FIG. 7A), and • to the C-terminus of the Lyn11 inner membrane targeting sequence for location at the plasma membrane (FIG. 8A).\nFor each construct, an ECFP was inserted between ^FIREmate and the other protein domain/sequence to monitor the localization of the resulting fusion protein (blue fluorescence). Each fusion protein was co-expressed in mammalian cells (HeLa cells or HEK293 cells as indicated) together with mCherry-^FIREtag (red fluorescence). […]"}, "[3]": {"system": "mCherry-FKBP-^FIREtag / TOM20-^FIREmate / FRB-ECFP-Giantin", "test": "Orthogonality with FRB-FKBP-rapamycin CIP system, confocal microscopy, HeLa cells", "conditions": "simultaneous addition of 10 μM HBR-2,5DM and 500 nM rapamycin", "protocol": "FIG. 12A is a representation of the experimental design wherein HeLa cells co-expressing mCherry-FKBP-^FIREtag, TOM20-^FIREmate and FRB-ECFP-Giantin were treated with 10 μM of match (i.e., HBR-2,5DM) and 500 nM rapamycin, and imaged by time-lapse confocal microscopy. FIG. 12B is a set of representative confocal micrographs of cells before and after addition of HBR-2,5DM (match1) and rapamycin (rap) (mCherry: ex/em 561/606-675 nm; FIRE: ex/em 488/508-570 nm; ECFP: ex/em 445/455-499 nm). Scale bars are 20 μm.\nas §1, with “v9.3.0. […]” for “v9.3.0.”"}}, "data": [{"smiles": "Cc1cc(/C=C2\\SC(=S)NC2=O)c(C)cc1O", "note": "[HBR-2,5DM, (Z)-5-(4-hydroxy-2,5-dimethylbenzylidene)-2-thioxo-1,3-thiazolidin-4-one]", "values": [{"measurement": "formation of fluorescent ternary assembly with caged^FIREtag and ^FIREmate", "setting": "[1]; 1, 5, 10, 25 or 50 μM, even in absence of rapamycin", "value": "could still form a fluorescent ternary assembly"}, {"measurement": "concentration required to reach full ternary assembly with caged^FIREtag", "setting": "[1]; absence of rapamycin", "value": "higher concentrations of HBR-2,5DM were required to reach full ternary assembly in absence of rapamycin"}, {"measurement": "FIRE signal at the endoplasmic reticulum", "setting": "[2]", "value": "simultaneous appearance of green fluorescence"}, {"measurement": "translocation of mCherry-^FIREtag to the endoplasmic reticulum", "setting": "[2]", "value": "rapid translocation of mCherry-^FIREtag to the organelle"}, {"measurement": "translocation of mCherry-FKBP-^FIREtag", "setting": "[3]", "value": "triggered the translocation of mCherry-FKBP-^FIREtag to the Golgi apparatus and to the mitochondria"}]}]}
